Tested on: human Cav3.1 Cav3.2 or Cav3.3 channel
Test: In vitro assay T channel (FLIPR calcium fluorescence)
Type: cell-based
Conditions: HEK293 cells expressing human Cav3.1, Cav3.2 or Cav3.3; 10 mM Ca2+-induced fluo-4 fluorescence; determined up to 10 μM; read-out: T channel antagonistic activity IC50
Protocol: The T channel antagonistic activity (IC50 values) of the compounds of formula (I) is determined in accordance with the following experimental method and data are shown in Table 1.
Human embryonic kidney (HEK293) cells expressing the human Cav3.1 Cav3.2 or Cav3.3 channel, respectively, are grown in culture medium (DMEM containing 10% heat-inactivated fetal calf serum (FCS), 100 U/ml penicillin, 100 μg/ml streptomycin and 1 mg/ml G418). The cells are seeded at 20.000 cells/well into 384-well black clear bottom sterile plates (poly-L-lysine-coated, Becton Dickinson). The seeded plates are incubated overnight at 37° C. in 5% CO2. The Ca^2+ solution is prepared as 100 mM stock solution in 100 mM tetraethylammoniumchloride (TEA-chloride), 50 mM HEPES, 2.5 mM CaCl2, 5 mM KCl, 1 mM MgCl2, adjusted to pH 7.2 with TEA-hydroxide, for use in the assay at a final concentration of 10 mM. Antagonists are prepared as 10 mM stock solutions in DMSO, then diluted in 384 w plates first in DMSO, then in 100 mM TEA-chloride, 50 mM HEPES, 2.5 mM CaCl2, 5 mM KCl, 1 mM MgCl2, adjusted to pH 7.2 with TEA-hydroxide, to obtain 9× stocks. On the day of the assay, 25 μl of staining buffer (HBSS containing 20 mM HEPES, 0.375 g/l NaHCO3 and 3 μM of the fluorescent calcium indicator fluo-4 AM (1 mM stock solution in DMSO, containing 10% pluronic) is added to each well of the seeded plate. The 384-well cell-plates are incubated for 60 min at 37° C. in 5% CO2 followed by washing with 2×50 μl per well using HBSS containing 0.1% BSA, 20 mM HEPES, 0.375 g/l NaHCO3, leaving 50 […] of this buffer for equilibration at room temperature (30-60 min). Within the Fluorescent Imaging Plate Reader (FLIPR, Molecular Devices), antagonists are added to the plate in a volume of 6.25 μl/well, incubated for 3 min, and finally 6.25 […] of Ca^2+ solution is added. Fluorescence is measured for each well at 2 second intervals for 8 minutes, and the area under the curve of each fluorescence peak is compared to the area of the fluorescence peak induced by 10 mM Ca^2+ with vehicle in place of antagonist. For each antagonist, the IC50 value (the concentration (in nM) of compound needed to inhibit 50% of the Ca^2+-induced fluorescence response) up to 10 μM is determined.

Row | SMILES | IC50
1 | CCCC1=C(C)[C@H]2CC[C@@H]1C[C@]2(CCN(C)CCCN(C)C(=O)C(C)(COC)COC)OC(=O)C(C)C (relative stereo) [Example 52A, rac-Isobutyric acid (1R*,2R*,4R*)-2-[2-({3-[(3-methoxy-2-methoxymethyl-2-methyl-propionyl)-methyl-amino]-propyl}-methyl-amino)-ethyl]-6-methyl-5-propyl-bicyclo[2.2.2]oct-5-en-2-yl ester] | 4210 nM
2 | COc1ccc(Cl)c2[nH]c(CCCN(C)CC[C@]3(OC(=O)C(C)C)C[C@H]4CC[C@@H]3C=C4c3ccccc3)nc12 (relative stereo) [Example 58A, rac-Isobutyric acid (1R*,2R*,4R*)-2-(2-{[3-(7-chloro-4-methoxy-1H-benzoimidazol-2-yl)-propyl]-methyl-amino}-ethyl)-5-phenyl-bicyclo[2.2.2]oct-5-en-2-yl ester] | 762 nM
3 | CCOc1ccc(CCCN(C)CC[C@]2(OC(=O)C(C)C)C[C@H]3CC[C@@H]2C=C3c2ccccc2)cc1OCC (relative stereo) [Example 40A, rac-Isobutyric acid (1R*,2R*,4R*)-2-(2-{[3-(3,4-diethoxy-phenyl)-propyl]-methyl-amino}-ethyl)-5-phenyl-bicyclo[2.2.2]oct-5-en-2-yl ester] | 8930 nM
4 | COc1cccc(C2=C[C@H]3CC[C@@H]2C[C@@]3(O)CCN(C)CCCc2nc3ccccc3[nH]2)c1 (relative stereo) [Example 2, rac-(1R*,2R*,4R*)-2-(2-{[3-(1H-Benzoimidazol-2-yl)-propyl]-methyl-amino}-ethyl)-5-(3-methoxy-phenyl)-bicyclo[2.2.2]oct-5-en-2-ol] | 5980 nM
5 | Cc1ccc(C2=C[C@H]3CC[C@@H]2C[C@@]3(O)CCN(C)CCCc2nc3ccccc3[nH]2)cc1 (relative stereo) [Example 6, rac-(1R*,2R*,4R*)-2-(2-{[3-(1H-Benzoimidazol-2-yl)-propyl]-methyl-amino}-ethyl)-5-(4-methyl-phenyl)-bicyclo[2.2.2]oct-5-en-2-ol] | 4850 nM
6 | CN(CCCc1ccccc1)CC[C@]1(O)C[C@H]2CC[C@@H]1C=C2c1ccccc1 (relative stereo) [Example 15, rac-(1R*,2R*,4R*)-2-{2-[Methyl-(3-phenyl-propyl)-amino]-ethyl}-5-phenyl-bicyclo[2.2.2]oct-5-en-2-ol] | > 10000 nM
7 | COC(=O)c1cccc2[nH]c(CCCN(C)CC[C@]3(OC(=O)C(C)C)C[C@H]4CC[C@@H]3C=C4c3ccccc3)nc12 (relative stereo) [Example 19A, rac-2-(3-{[2-((1R*,2R*,4R*)-2-Isobutyryloxy-5-phenyl-bicyclo[2.2.2]oct-5-en-2-yl)-ethyl]-methyl-amino}-propyl)-1H-benzoimidazole-4-carboxylic acid methyl ester] | 1700 nM
8 | COCC(C)(COC)C(=O)N(C)CCCN(C)CC[C@@]1(OC(=O)C(C)C)C[C@H]2CC[C@@H]1C(c1ccccc1)=C2C (relative stereo) [Example 53C, rac-Isobutyric acid (1R*,2S*,4R*)-2-[2-({3-[(3-methoxy-2-methoxymethyl-2-methyl-propionyl)-methyl-amino]-propyl}-methyl-amino)-ethyl]-5-methyl-6-phenyl-bicyclo[2.2.2]oct-5-en-2-yl ester] | 906 nM
9 | CC(C)C(=O)O[C@@]1(CCN(C)CCCc2nc3c(OC(F)(F)F)cccc3[nH]2)C[C@H]2CC[C@@H]1C=C2c1ccccc1 (relative stereo) [Example 68A, rac-Isobutyric acid (1R*,2R*,4R*)-2-(2-{methyl-[3-(4-trifluoromethoxy-1H-benzoimidazol-2-yl)-propyl]-amino}-ethyl)-5-phenyl-bicyclo[2.2.2]oct-5-en-2-yl ester] | 839 nM
10 | COc1cccc2[nH]c(CCCN(C)CC[C@]3(OC(=O)NC(C)C)C[C@H]4CC[C@@H]3C=C4c3ccccc3)nc12 (relative stereo) [Example 26E, rac-Isopropyl-carbamic acid (1R*,2R*,4R*)-2-(2-{[3-(4-methoxy-1H-benzoimidazol-2-yl)-propyl]-methyl-amino}-ethyl)-5-phenyl-bicyclo[2.2.2]oct-5-en-2-yl ester] | 1110 nM
11 | CC(C)C(=O)OC1(CCN(C)CCCc2nc3ccccc3[nH]2)CC2CCC1C=C2c1ccccc1 [Example 11A, Isobutyric acid (1R,2R,4R)-2-(2-{[3-(1H-benzoimidazol-2-yl)-propyl]-methyl-amino}-ethyl)-5-phenyl-bicyclo[2.2.2]oct-5-en-2-yl ester or isobutyric acid (1S,2S,4S)-2-(2-{[3-(1H-benzoimidazol-2-yl)-propyl]-methyl-amino}-ethyl)-5-phenyl-bicyclo[2.2.2]oct-5-en-2-yl ester] | 4650 nM
12 | CCCC1=C(C)[C@H]2CC[C@@H]1C[C@]2(CCN(C)CCCc1nc2ccccc2[nH]1)OC(=O)C(C)C (relative stereo) [Example 16A, rac-Isobutyric acid (1R*,2R*,4R*)-2-(2-{[3-(1H-benzoimidazol-2-yl)-propyl]-methyl-amino}-ethyl)-6-methyl-5-propyl-bicyclo[2.2.2]oct-5-en-2-yl ester] | 2390 nM
13 | COCC(C)(COC)C(=O)N(C)CCCN(C)CC[C@]1(O)C[C@H]2CC[C@@H]1C=C2c1ccccc1 (relative stereo) [Example 51, rac-N-(3-{[2-((1R*,2R*,4R*)-2-Hydroxy-5-phenyl-bicyclo[2.2.2]oct-5-en-2-yl)-ethyl]-methyl-amino}-propyl)-3-methoxy-2-methoxymethyl-2,N-dimethyl-propionamide] | > 10000 nM
14 | CC(C)C(=O)O[C@@]1(CCN(C)Cc2nc3ccccc3[nH]2)C[C@H]2CC[C@@H]1C=C2c1ccccc1 (relative stereo) [Example 14A, rac-Isobutyric acid (1R*,2R*,4R*)-2-{2-[(1H-benzoimidazol-2-ylmethyl)-methyl-amino]-ethyl}-5-phenyl-bicyclo[2.2.2]oct-5-en-2-yl ester] | 3180 nM
15 | COc1cccc2[nH]c(CCCN(C)CC[C@]3(OC(=O)C(C)C)C[C@H]4CC[C@@H]3C=C4c3ccccc3)nc12 (relative stereo) [Example 26A, rac-Isobutyric acid (1R*,2R*,4R*)-2-(2-{[3-(4-methoxy-1H-benzoimidazol-2-yl)-propyl]-methyl-amino}-ethyl)-5-phenyl-bicyclo[2.2.2]oct-5-en-2-yl ester] | 2090 nM
16 | COc1cccc2[nH]c(CCCN(C)CC[C@]3(OC(=O)OC(C)C)C[C@H]4CC[C@@H]3C=C4c3ccccc3)nc12 (relative stereo) [Example 26G, rac-Carbonic acid isopropyl ester (1R*,2R*,4R*)-2-(2-{[3-(4-methoxy-1H-benzoimidazol-2-yl)-propyl]-methyl-amino}-ethyl)-5-phenyl-bicyclo[2.2.2]oct-5-en-2-yl ester] | 935 nM
17 | Cc1cccc(C)c1C1=C[C@H]2CC[C@@H]1C[C@]2(CCN(C)CCCc1nc2ccccc2[nH]1)OC(=O)C(C)C (relative stereo) [Example 3A, rac-Isobutyric acid (1R*,2R*,4R*)-2-(2-{[3-(1H-benzoimidazol-2-yl)-propyl]-methyl-amino}-ethyl)-5-(2,6-dimethyl-phenyl)-bicyclo[2.2.2]oct-5-en-2-yl ester] | 4600 nM
18 | CC1=C(c2ccccc2)[C@H]2CC[C@@H]1C[C@]2(O)CCN(C)CCCc1nc2ccccc2[nH]1 (relative stereo) [Example 17B, rac-(1R*,2S*,4R*)-2-(2-{[3-(1H-Benzoimidazol-2-yl)-propyl]-methyl-amino}-ethyl)-5-methyl-6-phenyl-bicyclo[2.2.2]oct-5-en-2-ol] | 751 nM

From patent US8202885B2, “Bridged six-membered ring compounds” (Actelion Pharmaceuticals Ltd., priority 2007, dated 2012)
